Consider 49 compounds from US20240109915A1, “NOVEL ACC INHIBITORS” (Pfizer Inc., priority 2022, published 2024).

By IC50 is commonly meant the midpoint of a concentration-inhibition curve.

The assay deals with recombinant human ACC1 (rhACC1) (Homo sapiens (Human), UniProt Q13085). As to the kind of experiment: Transcreener ADP detection FP assay, direct inhibition of rhACC1. Type of assay: biochemical. Conditions: Geomean IC50, n ≥ 2 unless * then n = 1; 50 μM ATP, 30 μM acetyl-CoA. Here is the method:
The direct inhibition of ACC1 for the compounds of the present invention was determined using preparations of recombinant human ACC1 (rhACC1) (SEQ ID NO. 1)
Two liters of SF9 cells, infected with recombinant baculovirus containing full length human ACC1 cDNA, were suspended in ice-cold lysis buffer (25 mM Tris, pH 7.5; 150 mM NaCl; 10% glycerol; 5 mM imidazole (EMD Bioscience; Gibbstown, NJ); 2 mM TCEP (BioVectra; Charlottetown, Canada); Benzonase nuclease (10000 U/100 g cell paste; Novagen; Madison, WI); EDTA-free protease inhibitor cocktail (1 tab/50 ml; Roche Diagnostics; Mannheim, Germany). Cells were lysed by 3 cycles of freeze-thaw and centrifuged at 40,000×g for 40 minutes (4° C.). Supernatant was directly loaded onto a HisTrap FF crude column (GE Healthcare; Piscataway, NJ) and eluted with an imidazole gradient up to 0.5 M over 20 column volumes (CV). ACC1-containing fractions were pooled and diluted 1:5 with 25 mM Tris, pH 7.5, 2 mM TCEP, 10% glycerol and direct loaded onto a CaptoQ (GE Healthcare) column and eluted with an NaCl gradient up to 1 M over 20 CV's. Phosphate groups were removed from purified ACC1 by incubation with lambda phosphatase (100 U/10 μM target protein; New England Biolabs; Beverly, MA) for 14 hours at 4° C.; okadaic acid was added (1 μM final concentration; Roche Diagnostics) to inhibit the phosphatase. Purified ACC1 was exchanged into 25 mM Tris, pH 7.5, 2 mM TCEP, 10% glycerol, 0.5 M NaCl by 6 hour dialysis at 4° C. Aliquots were prepared and frozen at −80° C.
Measurement of rhACC1 Inhibition rhACC1 was assayed in a Corning #3820 (Corning, Tewksbury, MA) 384-well plate using the Transcreener ADP detection FP assay kit (Bellbrook Labs, Madison, Wisconsin) using the manufacturer's recommended conditions for a 50 μM ATP reaction. The final conditions for the assay were 50 mM HEPES, pH 7.2, 10 mM MgCl2, 7.5 mM tripotassium citrate, 2 mM DTT, 0.1 mg/mL BSA, 30 μM acetyl-CoA, 50 μM ATP, and 10 mM KHCO3. Typically, a […] was run for 60 min at room temp, and 10 μl of Transcreener stop and detect buffer was added and the combination incubated at room temp for an overnight (18 hours). The data was acquired on an Envision Fluorescence reader (PerkinElmer) using a 620 excitation Cy5 FP general dual mirror, 620 excitation Cy5 FP filter, 688 emission (S) and a 688 (P) emission filter.
On to `Cc1cc(C(=O)N2CCC3(CC2)CC(=O)c2nc(C(C)(C)C)sc2C3)c2[nH]ncc2c1C` [Example 35, 2-(tert-butyl)-1′-(4,5-dimethyl-1H-indazole-7-carbonyl)-5H-spiro[benzo[d]thiazole-6,4′-piperidin]-4(7H)-one], for which the IC50 worked out at 2.6 nM.
For `COc1c(C)cc(C(=O)N2CCC3(CC2)CC(=O)c2nc(C(C)(C)C)sc2C3)c2[nH]ncc12` [Example 36, 2-(tert-butyl)-1′-(4-methoxy-5-methyl-1H-indazole-7-carbonyl)-5H-spiro[benzo[d]thiazole-6,4′-piperidin]-4(7H)-one], the half-maximal inhibitory concentration (IC50) worked out at 23.2 nM.
As for `CCNc1ccc2c(C)cc(C(=O)N3CCC4(CC3)CC(=O)c3nc(C(C)(C)C)sc3C4)cc2n1` [Example 39, 2-(tert-butyl)-1′-(2-(ethylamino)-5-methylquinoline-7-carbonyl)-5H-spiro[benzo[d]thiazole-6,4′-piperidin]-4(7H)-one], the figure is 6.4 nM.
Take `CNc1ccc2c(OC)cc(C(=O)N3CCC4(CC3)CC(=O)c3nc(C(C)(C)C)sc3C4)cc2n1` [Example 40, 2-(tert-butyl)-1′-(5-methoxy-2-(methylamino)quinoline-7-carbonyl)-5H-spiro[benzo[d]thiazole-6,4′-piperidin]-4(7H)-one]: the 50% inhibitory concentration (IC50) amounted to 1.5 nM.
In the case of `COc1ccnc2c(C)cc(C(=O)N3CCC4(CC3)CC(=O)c3nc(C(C)(C)C)sc3C4)cc12` [Example 41, 2-(tert-butyl)-1′-(4-methoxy-8-methylquinoline-6-carbonyl)-5H-spiro[benzo[d]thiazole-6,4′-piperidin]-4(7H)-one] it was 15.3 nM; in that of `COc1cc(C(=O)N2CCC3(CC2)CC(=O)c2nc(C(C)(C)C)sc2C3)cc2c(OC)cncc12` [Example 43, 2-(tert-butyl)-1′-(4,8-dimethoxyisoquinoline-6-carbonyl)-5H-spiro[benzo[d]thiazole-6,4′-piperidin]-4(7H)-one], 5.2 nM; in that of `Cc1n[nH]c2c(C)cc(C(=O)N3CCC4(CC3)CC(=O)c3nc(C(C)(C)C)sc3C4)cc12` [Example 45], 7.6 nM.
As for `COc1nccc2ccc(C(=O)N3CCC4(CC3)CC(=O)c3nc(C(C)(C)C)sc3C4)cc12` [Example 46], the figure is 85.9 nM.
As for `Cc1cc(C(=O)N2CCC3(CC2)CC(=O)c2nc(C(C)(C)C)sc2C3)cc2cccnc12` [Example 48], the IC50 worked out at 10000 nM.
As for `COc1cc(C(=O)N2CCC3(CC2)CC(=O)c2nc(C(C)(C)C)sc2C3)cc2c(C)n[nH]c12` [Example 49], the figure is 6.4 nM.
In the case of `Cc1cc(C(=O)N2CCC3(CC2)CC(=O)c2nc(C(C)(C)C)sc2C3)cc2c(Cl)n[nH]c12` [Example 50] it was 5.4 nM; in that of `Cc1c[nH]c2cc(C(=O)N3CCC4(CC3)CC(=O)c3nc(C(C)(C)C)sc3C4)ccc12` [Example 51], 22.4 nM.
As for `Cc1cc(C(=O)N2CCC3(CC2)CC(=O)c2nc(C(C)(C)C)sc2C3)c(O)c2ccccc12` [Example 52], the figure is 2.4 nM; as for `CNc1cc2ccccc2cc1C(=O)N1CCC2(CC1)CC(=O)c1nc(C(C)(C)C)sc1C2` [Example 53], 18.1 nM.
For `Cc1ccc(C)c2[nH]c(C(=O)N3CCC4(CC3)CC(=O)c3nc(C(C)(C)C)sc3C4)cc12` [Example 55], the IC50 was found to be 3.5 nM.
As for `COc1ccc(C)c2[nH]c(C(=O)N3CCC4(CC3)CC(=O)c3nc(C(C)(C)C)sc3C4)cc12` [Example 56], the figure is 5.8 nM; as for `CC(C)(C)c1nc2c(s1)CC1(CCN(C(=O)c3cc(O)c4ccccc4c3)CC1)CC2=O` [Example 57], 19.7 nM.
As for `COc1ccc2ccc(C(=O)N3CCC4(CC3)CC(=O)c3nc(C(C)(C)C)sc3C4)cc2c1` [Example 58], the figure is 7.1 nM; as for `COc1cccc2cc(C(=O)N3CCC4(CC3)CC(=O)c3nc(C(C)(C)C)sc3C4)[nH]c12` [Example 60], 27.3 nM.
As for `Cc1cc(C(=O)N2CCC3(CC2)CC(=O)c2nc(C(C)(C)C)sc2C3)cc2[nH]ccc12` [Example 62], the figure is 3.6 nM.
Regarding `CC(C)(C)c1nc2c(s1)CC1(CCN(C(=O)c3ccc4ccccc4c3O)CC1)CC2=O` [Example 63], the half-maximal inhibitory concentration (IC50) was determined as 19.7 nM.
As for `Cc1c[nH]c2ccc(C(=O)N3CCC4(CC3)CC(=O)c3nc(C(C)(C)C)sc3C4)cc12` [Example 64], the figure is 11.8 nM; as for `CC(C)(C)c1nc2c(s1)CC1(CCN(C(=O)c3ccc4[nH]cc(Cl)c4c3)CC1)CC2=O` [Example 65], 13 nM.
As for `COc1cccc2ncc(C(=O)N3CCC4(CC3)CC(=O)c3nc(C(C)(C)C)sc3C4)cc12` [Example 66], the figure is 115 nM.
In the case of `CN(C)c1cc(C(=O)N2CCC3(CC2)CC(=O)c2nc(C(C)(C)C)sc2C3)cc(-c2ccccc2)n1` [Example 68] it was 3.9 nM.
Take `COc1cc(C(=O)N2CCC3(CC2)CC(=O)c2nc(C(C)(C)C)sc2C3)cc(-c2ccccc2)n1` [Example 69]: the IC50 is 16.1 nM.
As for `CC(C)(C)Nc1ccc2ccc(C(=O)N3CCC4(CC3)CC(=O)c3nc(C(C)(C)C)sc3C4)cc2n1` [Example 70], the figure is 4.6 nM; as for `CNc1cc(C(=O)N2CCC3(CC2)CC(=O)c2nc(C(C)(C)C)sc2C3)cc(-c2ccccc2)n1` [Example 71], 13.6 nM.
In the case of `CC(C)(C)c1nc2c(s1)CC1(CCN(C(=O)c3ccc4nccc(O)c4c3)CC1)CC2=O` [Example 72] it was 10000 nM; in that of `CNc1nc2ccccc2cc1C(=O)N1CCC2(CC1)CC(=O)c1nc(C(C)(C)C)sc1C2` [Example 74], 189 nM.
In the case of `COc1cc(C(=O)N2CCC3(CC2)CC(=O)c2nc(C(C)(C)C)sc2C3)c2[nH]ncc2c1` [Example 75] it was 17.6 nM; in that of `Cc1cc(C(=O)N2CCC3(CC2)CC(=O)c2nc(C(C)(C)C)sc2C3)cc2ccn(C)c12` [Example 76], 65.4 nM; in that of `CNc1nc2ccc(OC)cc2cc1C(=O)N1CCC2(CC1)CC(=O)c1nc(C(C)(C)C)sc1C2` [Example 77], 9.4 nM.
For `CC(C)(C)c1nc2c(s1)CC1(CCN(C(=O)c3cc(Cl)c4cc[nH]c4c3)CC1)CC2=O` [Example 78], the 50% inhibitory concentration (IC50) stood at 7.6 nM.
For the compound `COc1ccc2cc(C(=O)N3CCC4(CC3)CC(=O)c3nc(C(C)(C)C)sc3C4)cc(C)c2n1` [Example 80], the IC50 was 109 nM.
In the case of `Cc1cc(C(=O)N2CCC3(CC2)CC(=O)c2nc(C(C)(C)C)sc2C3)cc2c1ccn2C` [Example 82] it was 6.1 nM; in that of `COc1cc(C(=O)N2CCC3(CC2)CC(=O)c2nc(C(C)(C)C)sc2C3)cc2c1ccn2C` [Example 83], 11.1 nM.
For the compound `Cc1c(O)c(C(=O)N2CCC3(CC2)CC(=O)c2nc(C(C)(C)C)sc2C3)cc2ccccc12` [Example 85], the half-maximal inhibitory concentration (IC50) amounted to 7 nM.
As for `COc1cc(C(=O)N2CCC3(CC2)CC(=O)c2nc(C(C)(C)C)sc2C3)nc2c(OC)cccc12` [Example 86], the figure is 14.3 nM; as for `Cc1cn(C)c2c(C)cc(C(=O)N3CCC4(CC3)CC(=O)c3nc(C(C)(C)C)sc3C4)cc12` [Example 87], 6.2 nM; as for `CC(C)(C)c1nc2c(s1)CC1(CCN(C(=O)c3ccc(Cl)c4[nH]ccc34)CC1)CC2=O` [Example 88], 15 nM.
As for `CC(C)(C)c1nc2c(s1)CC1(CCN(C(=O)c3ccc(Cl)c4cc[nH]c34)CC1)CC2=O` [Example 89], the figure is 6.3 nM; as for `CC(C)(C)c1nc2c(s1)CC1(CCN(C(=O)c3cc(Cl)cc4cc[nH]c34)CC1)CC2=O` [Example 90], 9.6 nM.
As for `Cc1cccc2ccc(C(=O)N3CCC4(CC3)CC(=O)c3nc(C(C)(C)C)sc3C4)cc12` [Example 91], the figure is 14 nM.
Regarding `Cc1c[nH]c2c(C)cc(C(=O)N3CCC4(CC3)CC(=O)c3nc(C(C)(C)C)sc3C4)cc12` [Example 92], the IC50 worked out at 2.4 nM.
As for `Cc1cc(C(=O)N2CCC3(CC2)CC(=O)c2nc(C(C)(C)C)sc2C3)cc2c1NCCC2` [Example 93], the figure is 19.5 nM; as for `COc1cc(C(=O)N2CCC3(CC2)CC(=O)c2nc(C(C)(C)C)sc2C3)cc2c(C)ccnc12` [Example 95], 46.5 nM; as for `Cc1ccnc2c(C)cc(C(=O)N3CCC4(CC3)CC(=O)c3nc(C(C)(C)C)sc3C4)cc12` [Example 96], 26.1 nM.
As for `COc1cc(C(=O)N2CCC3(CC2)CC(=O)c2nc(C(C)(C)C)sc2C3)c2[nH]nc(C)c2c1` [Example 98], the figure is 8.6 nM.
